Experimental data from patent US20150197497A1, “SELECTIVE INHIBITORS OF HISTONE DEACETYLASE ISOFORM 6 AND METHODS THEREOF” (DANA-FARBER CANCER INSTITUTE, INC., priority 2011, published 2015).
pEC50, pIC50: −log10 of the molar value.

Legend:
acetylated histones = experiment: High-content image analysis of induction of acetylated histones in A549 cells; details: Homo sapiens, A549, 8 h, read-out: EC50 for half-maximal induction of acetylated histones (AcHistone)
Protocol: Cells were treated with each test HDACi compound with an automated pin transfer instrument (Janus, Perkin Elmer) and incubated for 8 hours. […] Fixation solution was aspirated and 90 μL of washing solution (0.1% Triton X-100 in PBS) was added prior to 10 minute incubation at 4° C. Washing solution was aspirated and cells were incubated at 4° C. for about 1 hour in blocking solution (0.1% Triton X-100+2% BSA in PBS). Washing solution was aspirated, and cells were incubated for about 1 hour at 4° C. in primary antibody for acetylated-tubulin (Sigma T7451) and acetylated-histone (Cell Signaling #9441L) at a 1:1000 dilution in blocking solution. Primary antibody solution was aspirated, and cells were washed three times in 90 μL of washing solution. […] Secondary antibody and nuclear staining solution was aspirated and cells were washed three times in 90 μL of washing solution. After the third wash, 50 μL of PBS was added to each well. Image acquisition was done on a high content imaging microscope (ImageXpress Micro, Molecular Devices), and image analysis (MetaXpress, Molecular Devices) was performed to obtain average acetylated-tubulin and acetylated-histone signal per cell based on treatment. Replicate experimental data from incubations with inhibitor were normalized to DMSO controls.

HDAC9 = biological target: T1, HDAC9 (Homo sapiens, UniProt Q9UKV0); experiment: In vitro HDAC enzyme inhibition assay, HDAC9; format: biochemical; details: for HDAC9/HDAC6 in vitro selectivity: ratio of IC50 for HDAC9 relative to that of HDAC6; for pIC50: recombinant full-length HDAC9, substrate MAZ1675 26 μM; for selectivity toward HDAC6 compared to HDAC9 (in words): tested in vitro
T1 construct: Recombinant, full-length HDAC protein (BPS Biosciences) was incubated with fluorophore conjugated substrate; purchased BPS Biosciences
T1 sequence (Q9UKV0 whole entry): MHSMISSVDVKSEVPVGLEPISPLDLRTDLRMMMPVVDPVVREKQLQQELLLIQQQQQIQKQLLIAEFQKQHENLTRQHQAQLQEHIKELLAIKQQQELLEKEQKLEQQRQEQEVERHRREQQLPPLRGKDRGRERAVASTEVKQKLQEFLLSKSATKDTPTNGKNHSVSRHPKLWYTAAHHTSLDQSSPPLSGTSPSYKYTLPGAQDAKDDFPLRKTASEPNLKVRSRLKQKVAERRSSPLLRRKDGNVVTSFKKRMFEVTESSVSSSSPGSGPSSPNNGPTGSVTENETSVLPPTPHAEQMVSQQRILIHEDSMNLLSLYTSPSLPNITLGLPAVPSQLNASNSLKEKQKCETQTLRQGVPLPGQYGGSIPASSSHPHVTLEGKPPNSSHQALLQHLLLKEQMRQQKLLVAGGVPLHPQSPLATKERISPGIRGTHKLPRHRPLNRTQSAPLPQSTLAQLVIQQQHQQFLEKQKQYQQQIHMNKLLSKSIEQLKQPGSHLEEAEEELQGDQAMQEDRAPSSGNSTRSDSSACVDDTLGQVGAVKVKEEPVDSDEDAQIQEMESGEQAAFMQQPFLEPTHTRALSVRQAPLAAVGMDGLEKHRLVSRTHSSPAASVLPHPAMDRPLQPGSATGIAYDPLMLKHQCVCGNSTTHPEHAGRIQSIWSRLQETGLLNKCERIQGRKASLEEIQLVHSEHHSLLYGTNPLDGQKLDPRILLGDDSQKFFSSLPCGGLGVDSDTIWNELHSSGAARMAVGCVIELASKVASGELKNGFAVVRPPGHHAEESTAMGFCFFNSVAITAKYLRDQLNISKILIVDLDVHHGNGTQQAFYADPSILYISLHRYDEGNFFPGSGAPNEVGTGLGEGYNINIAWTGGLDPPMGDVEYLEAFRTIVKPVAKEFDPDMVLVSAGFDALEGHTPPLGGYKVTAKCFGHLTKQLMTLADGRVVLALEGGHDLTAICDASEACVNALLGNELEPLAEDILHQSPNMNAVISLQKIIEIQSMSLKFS
Protocol: (§1) In vitro Histone Deacetylase enzyme assays were performed using Class I (isoforms: HDAC1, HDAC2, HDAC3 and HDAC8), class IIa (isoforms: HDAC4, HDAC5, HDAC7 and HDAC9) and class IIb (isoform HDAC6).
(§2) HDAC activities were determined in vitro with an optimized homogenous assay performed in a 384-well plate. Recombinant, full-length HDAC protein (BPS Biosciences) was incubated with fluorophore conjugated substrate, MAZ1600 and MAZ1675, at Km=[S]. […] Reactions were performed in assay buffer (50 mM HEPES, 100 mM KCl, 0.001% Tween-20, 0.05% BSA, 200 μM tris(2-carboxyethyl)phosphine (TCEP), pH 7.4) and followed for fluorogenic release of 7-amino-4-methylcoumarin from substrate upon deacetylase and trypsin enzymatic activity. Fluorescence measurements were obtained every five minutes using a multilabel plate reader and plate-stacker (Envision; Perkin-Elmer). Each plate was analyzed by plate repeat, and the first derivative within the linear range was imported into analytical software (Spotfire DecisionSite and GraphPad Prism). Replicate experimental data from incubations with inhibitor were normalized to controls.

HDAC6 = biological target: T2, HDAC6 (Homo sapiens, UniProt Q9UBN7); experiment: In vitro HDAC enzyme inhibition assay, HDAC6; format: biochemical; details: recombinant full-length HDAC6, substrate MAZ1600 9 μM
T2 construct: Recombinant, full-length HDAC protein (BPS Biosciences) was incubated with fluorophore conjugated substrate; purchased BPS Biosciences
T2 sequence (Q9UBN7 1-1215): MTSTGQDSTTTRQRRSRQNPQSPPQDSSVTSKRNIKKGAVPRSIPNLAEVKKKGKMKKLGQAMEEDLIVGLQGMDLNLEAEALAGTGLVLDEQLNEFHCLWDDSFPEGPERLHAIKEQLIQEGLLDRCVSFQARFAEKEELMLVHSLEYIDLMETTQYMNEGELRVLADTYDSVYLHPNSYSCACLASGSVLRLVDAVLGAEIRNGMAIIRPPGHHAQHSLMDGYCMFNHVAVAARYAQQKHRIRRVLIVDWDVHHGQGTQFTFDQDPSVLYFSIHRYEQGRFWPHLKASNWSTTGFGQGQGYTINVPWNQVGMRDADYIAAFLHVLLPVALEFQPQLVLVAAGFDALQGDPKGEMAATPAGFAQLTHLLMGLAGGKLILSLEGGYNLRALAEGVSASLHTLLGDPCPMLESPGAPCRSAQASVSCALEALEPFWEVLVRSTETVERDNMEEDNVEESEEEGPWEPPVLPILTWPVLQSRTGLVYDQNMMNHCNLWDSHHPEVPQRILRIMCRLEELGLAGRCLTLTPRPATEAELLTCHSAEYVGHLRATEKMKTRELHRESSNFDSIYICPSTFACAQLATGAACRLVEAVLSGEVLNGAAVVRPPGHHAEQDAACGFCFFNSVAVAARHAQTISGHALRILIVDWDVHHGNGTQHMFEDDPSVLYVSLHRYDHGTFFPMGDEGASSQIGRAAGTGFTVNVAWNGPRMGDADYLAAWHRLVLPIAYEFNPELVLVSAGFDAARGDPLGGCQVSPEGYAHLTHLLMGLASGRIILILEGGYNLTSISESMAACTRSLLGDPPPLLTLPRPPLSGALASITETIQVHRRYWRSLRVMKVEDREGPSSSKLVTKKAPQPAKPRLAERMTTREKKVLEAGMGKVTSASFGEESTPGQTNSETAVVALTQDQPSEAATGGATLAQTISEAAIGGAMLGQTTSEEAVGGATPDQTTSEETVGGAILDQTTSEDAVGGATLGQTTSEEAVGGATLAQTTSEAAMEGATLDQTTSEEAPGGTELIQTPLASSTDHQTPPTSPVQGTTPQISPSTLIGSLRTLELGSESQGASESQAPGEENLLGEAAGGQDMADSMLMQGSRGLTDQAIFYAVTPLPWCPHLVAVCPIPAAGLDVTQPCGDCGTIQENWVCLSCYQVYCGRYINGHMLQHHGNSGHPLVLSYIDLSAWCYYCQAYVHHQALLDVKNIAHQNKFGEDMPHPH
Protocol: as §1, §2

HDAC7 = biological target: T3, HDAC7 (Homo sapiens, UniProt Q8WUI4); experiment: In vitro HDAC enzyme inhibition assay, HDAC7; format: biochemical; details: for HDAC7/HDAC6 in vitro selectivity: ratio of IC50 for HDAC7 relative to that of HDAC6; for pIC50: recombinant full-length HDAC7, substrate MAZ1675 22 μM
T3 construct: Recombinant, full-length HDAC protein (BPS Biosciences) was incubated with fluorophore conjugated substrate; purchased BPS Biosciences
T3 sequence (Q8WUI4 1-952): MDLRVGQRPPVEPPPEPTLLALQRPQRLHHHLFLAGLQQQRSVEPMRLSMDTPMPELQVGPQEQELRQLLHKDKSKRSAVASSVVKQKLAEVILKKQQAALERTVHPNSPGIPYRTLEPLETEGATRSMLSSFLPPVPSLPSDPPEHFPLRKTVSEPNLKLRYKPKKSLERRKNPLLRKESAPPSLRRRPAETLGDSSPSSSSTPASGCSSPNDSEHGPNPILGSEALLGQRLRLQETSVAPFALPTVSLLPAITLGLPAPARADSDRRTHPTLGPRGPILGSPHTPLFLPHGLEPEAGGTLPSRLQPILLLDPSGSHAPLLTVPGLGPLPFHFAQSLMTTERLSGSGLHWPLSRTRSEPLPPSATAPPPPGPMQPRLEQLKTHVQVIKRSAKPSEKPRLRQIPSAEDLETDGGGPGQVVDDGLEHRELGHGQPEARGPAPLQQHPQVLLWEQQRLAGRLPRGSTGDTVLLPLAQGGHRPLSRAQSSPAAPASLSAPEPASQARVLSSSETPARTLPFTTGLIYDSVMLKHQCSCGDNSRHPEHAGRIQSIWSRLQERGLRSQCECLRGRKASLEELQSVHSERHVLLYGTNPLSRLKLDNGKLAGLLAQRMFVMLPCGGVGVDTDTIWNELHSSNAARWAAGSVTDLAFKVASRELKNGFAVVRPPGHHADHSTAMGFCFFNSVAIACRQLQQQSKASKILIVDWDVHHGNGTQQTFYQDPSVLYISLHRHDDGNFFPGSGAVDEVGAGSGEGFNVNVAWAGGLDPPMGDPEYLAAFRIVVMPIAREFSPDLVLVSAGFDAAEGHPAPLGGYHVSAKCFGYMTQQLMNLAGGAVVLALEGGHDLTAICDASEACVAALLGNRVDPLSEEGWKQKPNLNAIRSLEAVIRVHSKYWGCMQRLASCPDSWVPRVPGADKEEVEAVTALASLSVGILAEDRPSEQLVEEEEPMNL
Protocol: as §1, §2

HDAC5 = biological target: T4, HDAC5 (Homo sapiens, UniProt Q9UQL6); experiment: In vitro HDAC enzyme inhibition assay, HDAC5; format: biochemical; details: for HDAC5/HDAC6 in vitro selectivity: ratio of IC50 for HDAC5 relative to that of HDAC6; for pIC50: recombinant full-length HDAC5, substrate MAZ1675 40 μM; for selectivity toward HDAC6 compared to HDAC5 (in words): tested in vitro
T4 construct: Recombinant, full-length HDAC protein (BPS Biosciences) was incubated with fluorophore conjugated substrate; purchased BPS Biosciences
T4 sequence (Q9UQL6 whole entry): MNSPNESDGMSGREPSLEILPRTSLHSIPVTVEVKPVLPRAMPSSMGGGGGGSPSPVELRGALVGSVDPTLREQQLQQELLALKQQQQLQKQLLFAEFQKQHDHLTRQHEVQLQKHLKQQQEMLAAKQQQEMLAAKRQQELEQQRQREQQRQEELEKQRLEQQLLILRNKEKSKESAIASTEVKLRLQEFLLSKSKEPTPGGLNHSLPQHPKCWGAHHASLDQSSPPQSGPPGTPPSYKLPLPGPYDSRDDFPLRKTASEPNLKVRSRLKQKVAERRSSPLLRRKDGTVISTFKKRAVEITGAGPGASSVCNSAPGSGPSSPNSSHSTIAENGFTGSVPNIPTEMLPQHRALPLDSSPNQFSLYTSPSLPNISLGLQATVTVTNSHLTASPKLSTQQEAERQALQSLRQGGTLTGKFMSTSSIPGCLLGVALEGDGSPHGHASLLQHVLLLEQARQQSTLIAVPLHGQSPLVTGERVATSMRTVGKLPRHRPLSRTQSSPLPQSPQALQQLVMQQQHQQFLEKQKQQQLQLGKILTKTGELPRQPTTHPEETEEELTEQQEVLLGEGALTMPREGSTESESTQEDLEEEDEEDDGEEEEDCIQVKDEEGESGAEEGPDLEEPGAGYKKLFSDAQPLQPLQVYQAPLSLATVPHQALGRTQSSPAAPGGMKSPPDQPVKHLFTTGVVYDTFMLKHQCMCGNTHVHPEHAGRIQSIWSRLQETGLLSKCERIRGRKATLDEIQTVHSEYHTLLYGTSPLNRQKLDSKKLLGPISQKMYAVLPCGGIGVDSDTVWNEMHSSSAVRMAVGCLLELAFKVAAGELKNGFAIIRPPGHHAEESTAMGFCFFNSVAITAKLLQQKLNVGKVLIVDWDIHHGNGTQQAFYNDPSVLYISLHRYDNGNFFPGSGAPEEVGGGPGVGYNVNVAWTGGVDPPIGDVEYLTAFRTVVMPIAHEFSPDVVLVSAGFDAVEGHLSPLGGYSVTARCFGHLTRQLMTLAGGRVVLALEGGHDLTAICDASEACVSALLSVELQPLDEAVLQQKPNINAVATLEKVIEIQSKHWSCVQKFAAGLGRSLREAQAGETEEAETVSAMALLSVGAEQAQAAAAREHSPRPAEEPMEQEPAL
Protocol: as §1, §2

pEC50 (acetylated histones) | HDAC9/HDAC6 in vitro selectivity (HDAC9) | pIC50 (HDAC9) | pIC50 (HDAC6) | HDAC7/HDAC6 in vitro selectivity (HDAC7) | pIC50 (HDAC7) | HDAC5/HDAC6 in vitro selectivity (HDAC5) | pIC50 (HDAC5) | SMILES | selectivity toward HDAC6 compared to HDAC9 (in words) (HDAC9) | selectivity toward HDAC6 compared to HDAC5 (in words) (HDAC5) | selectivity toward HDAC6 compared to HDAC7 (in words) (HDAC7; tested in vitro)
6.38 | 16475 | 6.38 | 10.60 | 3153 | 7.10 | 22793 | 6.24 | O=C(NO)c1ccc(Cn2c(=O)[nH]c3cc(Cl)ccc32)cc1 [B4, 4-((5-chloro-2-oxo-2,3-dihydro-1H-benzo[d]imidazol-1-yl)methyl)-N-hydroxybenzamide] |  |  | 
6.05 | 17278 | 5.92 | 10.16 | 4029 | 6.56 | 9686 | 6.18 | O=C(NO)c1ccc(Cn2cnc3cc(Cl)ccc32)cc1 [A10, 4-((5-chloro-1H-benzo[d]imidazol-1-yl)methyl)-N-hydroxybenzamide] |  |  | 
5.82 | 62138 | 5.79 | 10.58 | 21126 | 6.26 | 68665 | 5.74 | O=C(NO)c1ccc(Cn2nnc3cc(F)ccc32)cc1 [C3, 4-((5-fluoro-1H-benzo[d][1,2,3]triazol-1-yl)methyl)-N-hydroxybenzamide] | exceptionally high selectivity (Inhibitors with in vitro selectivity values for HDAC6 of at least 30,000 are considered to have exceptionally high selectivity toward HDAC6) | exceptionally high selectivity (Inhibitors with in vitro selectivity values for HDAC6 of at least 30,000 are considered to have exceptionally high selectivity toward HDAC6) | 
5.59 | 1871 | 6.14 | 9.41 | 1058 | 6.38 | 637 | 6.60 | COc1ccc2c(c1)nc(C(F)(F)F)n2Cc1ccc(C(=O)NO)cc1 [A6, N-hydroxy-4-((5-methoxy-2-(trifluoromethyl)-1H-benzo[d]imidazol-1-yl)methyl)benzamide] |  |  | 
5.71 | 61100 | 5.99 | 10.78 | 4265 | 7.15 | 25649 | 6.37 | O=C(NO)c1ccc(Cn2cnc3cc(Br)ccc32)cc1 [A11, 4-((5-bromo-1H-benzo[d]imidazol-1-yl)methyl)-N-hydroxybenzamide] | exceptionally high selectivity (Inhibitors with in vitro selectivity values for HDAC6 of at least 30,000 are considered to have exceptionally high selectivity toward HDAC6) |  | 
6.58 | 155186 | 5.65 | 10.84 | 30509 | 6.35 | 117927 | 5.77 | O=C(NO)c1ccc(Cn2c(=O)[nH]c3ccccc32)cc1 [B1, N-hydroxy-4-((2-oxo-2,3-dihydro-1H-benzo[d]imidazol-1-yl)methyl)benzamide] | exceptionally high selectivity (Inhibitors with in vitro selectivity values for HDAC6 of at least 30,000 are considered to have exceptionally high selectivity toward HDAC6) | exceptionally high selectivity (Inhibitors with in vitro selectivity values for HDAC6 of at least 30,000 are considered to have exceptionally high selectivity toward HDAC6) | exceptionally high selectivity (Inhibitors with in vitro selectivity values for HDAC6 of at least 30,000 are considered to have exceptionally high selectivity toward HDAC6)
